Patent publication USRE50230E1, “Method of treatment of hypoxia inducible factor (HIF)-related conditions” (GRIFOLS WORLDWIDE OPERATIONS LIMITED, priority 2014, dated 2024)

Tests used:
HIF1alpha protein = HIF1alpha protein levels by ELISA in SH-SY5Y cells; type: cell-based, human
Protocol: Human neuroblastoma SH-SY5Y cell line cells, cultured in serum free media were treated with plasma derived ApoTf and HoloTf (in both cases at a concentration of 1 mg/mL and 4 mg/mL) for 6 hours under normoxia (21% oxygen) and hypoxia conditions (1% oxygen). […] After 6 hrs intracellular proteins were harvested and tested for HIF1alpha protein levels by ELISA.
Experiment performed in example 1 was repeated but performing treatments for 24 hours and only under normoxic conditions. After 24 hrs intracellular proteins were harvested and tested for HIF1 alpha protein levels by ELISA.
After 6 hrs, intracellular proteins were harvested and tested for HIF1 alpha protein levels by ELISA.
To determine whether Apotransferrin increases the potency of the iron chelator, DFO, and the phd2 inhibitor IOX2; SH-SY5Y neuronal cells cultured in serum free media were treated with 4 mg/mL of the indicated proteins in the presence or absence of small molecule drug under normal oxygen levels. The data shown in FIG. 8A relates to treatment of cells with a combination of DFO or IOX2, at the indicated concentrations, plus 4 mg/mL protein. CoCl2 was used as an experimental positive control. The data shown in FIG. 8B relates to treatment of cells with a combination of 10 uM M30 plus/minus 4 mg/mL protein. The data shown in FIG. 8C relates to treatment of cells with a combination of 200 uM DFO plus/minus 4 mg/mL protein. After 6 hrs intracellular proteins were harvested and tested for HIF1 alpha protein levels by ELISA. Data are shown in pg/mL with standard deviation.

Glut1 = Glut1 mRNA expression by qPCR in SH-SY5Y cells; type: cell-based, human
Protocol: (§1) The stabilization of, and increase in, HIF-1α protein typically leads to an up-regulation of HIF-related genes (increase in the transcription of genes targeted by HIF), i.e. genes that have HIF binding sites in their transcriptional regulatory elements. Two well characterized genes that are activated by HIF-1α protein are Glut1 receptor and VEGF. Therefore, in order to analyze mRNA expression changes in each of these HIF target genes SH-SY5Y cell line cells were cultured and treated with majority ApoTf or majority HoloTf at a concentration of 1 mg/mL and 4 mg/mL under normoxic (21% oxygen) or hypoxic (1% oxygen) conditions for 6 hours. As a negative controls, cells were treated with HSA (1 mg/mL or 4 mg/mL) or were left untreated. After 6 hrs, intracellular mRNA was harvested and tested for Glut1 and VEGF expression levels by qPCR. Expression results were calculated relative to the expression of the corresponding transcript seen in untreated cells. FIGS. 4A and 4B show the expression results obtained for Glut1 receptor and VEGF, respectively. Values in the figures are shown as Relative Gene Expression, with the target gene (Glut1 or VEGF) normalized for housekeeper (beta-actin) expression.
(§2) In addition, mRNA expression levels of Glut1 and VEGF in response to majority Apotransferrin and DFO or IOX2 combinations were determined. […] Where indicated, either 200 uM DFO or 1 uM IOX2 were co-treated with the HSA and majority Apotransferrin. After 6 hr treatments, intracellular mRNA was harvested and tested for Glut1 and VEGF expression levels by qPCR. Values are shown as Relative Gene Expression, with the target gene (Glut1 or VEGF) normalized for housekeeper (beta-actin) expression. Standard deviations are shown.

VEGF = VEGF mRNA expression by qPCR in SH-SY5Y cells; type: cell-based, human
Protocol: as §1, §2

[1] = Modified Bederson and General Behavioral scores in rats; type: in vivo, rat; details: rats intravenously treated
Protocol: In vivo neurological function was assessed by a modified Bederson score (Bederson et al., 1986b; Crumrine et al., 2011) using the following definitions:
Score 0: No apparent neurological deficits;
Score 1: Body torsion present;
Score 2: Body torsion with right side weakness;
Score 3: Body torsion, right side weakness with circling behavior; and
Score 4: Seizure Activity.
General behavioral scores of rats were developed by the CALS personnel for the purpose of monitoring recovery of animals following surgical procedures (standard CALS post-operative care). A numerical value was assigned to the predetermined behavioral observations.
Score 0: Behavior consistent with a normal naïve rat (i.e. no ipsilateral deficit);
Score 1: Bright/active/responsive; the rat spontaneously moves and explores his cage, responds to external stimuli, explores the top of the cage;
Score 2: Quiet/alert/responsive; reserved behavior but will respond to external stimulus, tends not to rear or explore the top of the cage;
Score 3: Depressed behavior: tends not to move unless prodded, quickly returns to a somnolent state, little to no interest in external stimuli;
Score 4: Unresponsive: remains in a prostrate position even when prodded; and Score 5: Seizure activity requiring euthanasia.

HIF1 alpha protein [2] = test: HIF1 alpha protein levels by ELISA in RPTEC cells; type: cell-based, human; details: 4 mg/mL, 6 hrs, normal oxygen
Excerpt: (§3) It is well-known in the art that many small molecules used for the treatment of conditions related or provoked by hypoxia are toxic and have numerous side effects, e.g. DFO. One of the most apparent side effects of said small molecules is kidney toxicity. Therefore, in order to assess whether transferrin and/or mixtures increase HIF1 alpha levels in primary kidney cells; human primary kidney cells, both primary human renal proximal tubule epithelial (RPTEC) or cortical epithelial cells (HRCE) were obtained. Primary human renal proximal tubule epithelial (RPTEC) or primary cortical epithelial (HRCE) cells cultured in serum free media were treated with 4 mg/mL majority Apo-transferrin, majority Holo-transferrin or various mixtures of each for 6 hrs under normal oxygen levels. After 6 hrs intracellular proteins were harvested and tested for HIF1 alpha protein levels by ELISA. FIGS. 10A and 10B reveal that HIF1 alpha levels are induced with transferrin composed of mixtures of Apo-transferrin and Holo-transferrin in RPTEC and HRCE, respectively.

HIF1 alpha protein [3] = test: HIF1 alpha protein levels by ELISA in HRCE cells; type: cell-based, human; details: 4 mg/mL, 6 hrs, normal oxygen
Excerpt: as §3

[4] = system: primary human hepatocytes; test: Cell Titer Glow viability assay, primary human hepatocytes; type: cell-based; details: 4 mg/mL, 72 hours
Protocol: Given the anticipated safety profile of a human plasma protein, toxicity of transferrins (majority Apo, majority Holo and pd-transferrin) in NCI-H1650 and primary human hepatocyte cells was assessed. The human lung cell line, NCI-H1650, and primary human hepatocytes were treated for 72 hours with 4 mg/mL of majority ApoTf, majority HoloTf, or pd-transferrin. After 72 hours, cells were subjected to a Cell Titer Glow viability assay. Control cells, untreated cells, were set to a value of 100% viable. The average viability and standard deviations are shown in FIGS. 14A and 14B for each treatment condition.

[5] = 1 mg/mL, 6 hours, hypoxia (1% oxygen), SH-SY5Y
[6] = 1 mg/mL, 6 hours, normoxia (21% oxygen), SH-SY5Y
[7] = 1 mg/mL, 24 hours, normoxic, SH-SY5Y
[8] = 4 mg/mL, 6 hours, hypoxia (1% oxygen), SH-SY5Y
[9] = 4 mg/mL, 6 hours, normoxia (21% oxygen), SH-SY5Y
[10] = 4 mg/mL, 24 hours, normoxic, SH-SY5Y
[11] = 6 hours, normoxic, SH-SY5Y (FIG. 3)
[12] = 4 mg/mL, co-treated with 200 uM DFO or 1 uM IOX2, 6 hr, normal oxygen
[13] = hypoxic (1% oxygen), 6 hours, 1 mg/mL and 4 mg/mL
[14] = normoxic (21% oxygen), 6 hours, 1 mg/mL and 4 mg/mL

Substance	HIF-1α cellular protein levels (HIF1alpha protein; [5])	HIF-1α cellular protein levels (HIF1alpha protein; [6])	HIF-1α cellular protein levels (HIF1alpha protein; [7])	effect on HIF1 alpha protein levels in combination with M30 (HIF1alpha protein; 4 mg/mL protein plus 10 uM M30, 6 hrs, normal oxygen, SH-SY5Y)	effect on HIF1 alpha protein levels in combination with DFO (HIF1alpha protein; 4 mg/mL protein plus 200 uM DFO, 6 hrs, normal oxygen, SH-SY5Y)	HIF-1α cellular protein levels (HIF1alpha protein; [8])	HIF-1α cellular protein levels (HIF1alpha protein; [9])	HIF-1α cellular protein levels (HIF1alpha protein; [10])	HIF-1α cellular protein levels (HIF1alpha protein; [11])	Glut1 mRNA levels in combination with small molecule activators of the HIF pathway (Glut1; [12])	Glut1 mRNA expression relative to HSA controls (Glut1; [13])	VEGF mRNA levels in combination with small molecule activators of the HIF pathway (VEGF; [12])	VEGF mRNA expression relative to HSA controls (VEGF; [13])	modified Bederson and General Behavioral scores [1]	HIF1 alpha levels (HIF1 alpha protein [2])	HIF1 alpha levels (HIF1 alpha protein [3])	toxicity (cell viability) [4]	Glut1 mRNA expression (Glut1; [14])	VEGF mRNA expression (VEGF; [14])
majority ApoTf: plasma derived transferrin composition, majority iron-free apo-transferrin (98% ApoTf, 2% HoloTf)	significant increase	significant increase	increased	synergistic effects	synergistic effects	significant increase	significant increase	increased	increase	increase synergistically and additively	significantly increased	increase synergistically and additively	significantly increased	neither compositions of majority ApoTf nor majority HoloTf showed significant differences	Induce	Induce	no toxicity		
majority HoloTf: plasma derived transferrin composition, majority diferric holo-transferrin (30% ApoTf, 70% HoloTf)	significant increase	significant increase	tendency towards an increase			tendency towards an increase	significant increase	significant increase	increase					no detrimental effects	Induce	Induce	no toxicity	increased expression	increased expression of only Glut1
